Source: patent US20250034167A1, “HETEROCYCLIC COMPOUNDS AND METHODS OF USE” (AMGEN INC., priority 2021, published 2025)

The molecules below were run on Phosphorylation of ERK1/2 in AsPC-1 cells (assay: Phospho-ERK1/2 MSD Assay). Details: Homo sapiens, ASPC1, 2 h, read-out: 2 h p-ERK (AsPC-1 cells), IC50, AsPC-1 cells, 2 h compound treatment.
Type: cell-based
Description: Sixteen hours prior to compound treatment, AsPC-1 cells were seeded in 96-well cell culture plates at a density of 25,000 cells/well and incubated at 37° C., 5% CO2. A compound dose-response titration was diluted in growth media, added to appropriate wells of a cell culture plate, and then incubated at 37° C., 5% CO2 for 2 hours.
In the case of `CCc1c(F)ccc2cc(O)cc(-c3ncc4c(N5CCC[C@](C)(N)C5)nc(OC[C@@]56CCCN5C[C@H](F)C6)nc4c3F)c12` [Example 45, 4-(4-((S)-3-Amino-3-methylpiperidin-1-yl)-8-fluoro-2-(((2R,7aS)-2-fluorotetrahydro-1H-pyrrolizin-7a(5H)-yl)methoxy)pyrido[4,3-d]pyrimidin-7-yl)-5-ethyl-6-fluoronaphthalen-2-ol], the IC50 is reported as 2960 nM.
For `CCc1c(F)ccc2cc(O)cc(-c3ncc4c(N5CC[C@H](F)[C@H](O)C5)nc(OC[C@@]56CCCN5C[C@H](F)C6)nc4c3F)c12` [Example 47, (3R,4S)-1-(7-(8-Ethyl-7-fluoro-3-hydroxynaphthalen-1-yl)-8-fluoro-2-(((2R,7aS)-2-fluorotetrahydro-1H-pyrrolizin-7a(5H)-yl)methoxy)pyrido[4,3-d]pyrimidin-4-yl)-4-fluoropiperidin-3-ol], the IC50 was 222 nM.
`CCc1c(F)ccc2cccc(-c3ncc4c(N5CCC[C@@](C)(O)C5)nc(OC[C@@]56CCCN5C[C@H](F)C6)nc4c3F)c12` [Example 48, (R)-1-(7-(8-Ethyl-7-fluoronaphthalen-1-yl)-8-fluoro-2-(((2R,7aS)-2-fluorotetrahydro-1H-pyrrolizin-7a(5H)-yl)methoxy)pyrido[4,3-d]pyrimidin-4-yl)-3-methylpiperidin-3-ol] showed an IC50 of 341 nM.
`C[C@@]1(O)CCCN(c2nc(OC[C@@]34CCCN3C[C@H](F)C4)nc3c(F)c(-c4cc(O)cc5ccc(F)c(F)c45)ncc23)C1` [Example 59, (R)-1-(7-(7,8-Difluoro-3-hydroxynaphthalen-1-yl)-8-fluoro-2-(((2R,7aS)-2-fluorotetrahydro-1H-pyrrolizin-7a(5H)-yl)methoxy)pyrido[4,3-d]pyrimidin-4-yl)-3-methylpiperidin-3-ol] showed an IC50 of 33 nM.
With `CCc1c(F)ccc2cc(O)cc(-c3ncc4c(N5CC6CC5C(C)(O)C6)nc(OC[C@@]56CCCN5C[C@H](F)C6)nc4c3F)c12` (stereo partly drawn) [Example 71, 2-(7-(8-Ethyl-7-fluoro-3-hydroxynaphthalen-1-yl)-8-fluoro-2-(((2R,7aS)-2-fluorotetrahydro-1H-pyrrolizin-7a(5H)-yl)methoxy)pyrido[4,3-d]pyrimidin-4-yl)-6-methyl-2-azabicyclo[2.2.1]heptan-6-ol] the IC50 was 1170 nM.
With `CCc1c(F)ccc2cc(O)cc(-c3ncc4c(N5CCC[C@@H](NC(=S)NCCOC)C5)nc(OC[C@@]56CCCN5C[C@H](F)C6)nc4c3F)c12` [Example 74, 1-((R)-1-(7-(8-ethyl-7-fluoro-3-hydroxynaphthalen-1-yl)-8-fluoro-2-(((2R,7aS)-2-fluorotetrahydro-1H-pyrrolizin-7a(5H)-yl)methoxy)pyrido[4,3-d]pyrimidin-4-yl)piperidin-3-yl)-3-(2-methoxyethyl)thiourea] the IC50 was 2710 nM.
Molecule `CCc1c(F)ccc2cc(O)cc(-c3ncc4c(N5CCC[C@@](C)(NC(C)=O)C5)nc(OC[C@@]56CCCN5C[C@H](F)C6)nc4c3F)c12` [Example 76, N-((R)-1-(7-(8-Ethyl-7-fluoro-3-hydroxynaphthalen-1-yl)-8-fluoro-2-(((2R,7aS)-2-fluorotetrahydro-1H-pyrrolizin-7a(5H)-yl)methoxy)pyrido[4,3-d]pyrimidin-4-yl)-3-methylpiperidin-3-yl)acetamide] has an IC50 of 1100 nM.
With `CCc1c(F)ccc2cc(O)cc(-c3ncc4c(N5CCC[C@@](C)(NC(=O)OC)C5)nc(OC[C@@]56CCCN5C[C@H](F)C6)nc4c3F)c12` [Example 77, Methyl ((R)-1-(7-(8-ethyl-7-fluoro-3-hydroxynaphthalen-1-yl)-8-fluoro-2-(((2R,7aS)-2-fluorotetrahydro-1H-pyrrolizin-7a(5H)-yl)methoxy)pyrido[4,3-d]pyrimidin-4-yl)-3-methylpiperidin-3-yl)carbamate] the IC50 was 1530 nM.
Work on `CCc1c(F)ccc2cc(O)cc(-c3ncc4c(N5CCC[C@@H](NC(=O)OC)C5)nc(OC[C@@]56CCCN5C[C@H](F)C6)nc4c3F)c12` [Example 78, Methyl ((R)-1-(7-(8-ethyl-7-fluoro-3-hydroxynaphthalen-1-yl)-8-fluoro-2-(((2R,7aS)-2-fluorotetrahydro-1H-pyrrolizin-7a(5H)-yl)methoxy)pyrido[4,3-d]pyrimidin-4-yl)piperidin-3-yl)carbamate] yielded an IC50 of 244 nM.
In the case of `CCc1c(F)ccc2cc(O)cc(-c3ncc4c(N5CC(n6ccnc6)C5)nc(OC[C@@]56CCCN5C[C@H](F)C6)nc4c3F)c12` [Example 91, 4-(4-(3-(1H-Imidazol-1-yl)azetidin-1-yl)-8-fluoro-2-(((2R,7aS)-2-fluorotetrahydro-1H-pyrrolizin-7a(5H)-yl)methoxy)pyrido[4,3-d]pyrimidin-7-yl)-5-ethyl-6-fluoronaphthalen-2-ol], the IC50 is reported as 5130 nM.
`CCc1c(F)ccc2cc(O)cc(-c3ncc4c(N5CCCC(=O)CC5)nc(OC[C@@]56CCCN5C[C@H](F)C6)nc4c3F)c12` [Example 95, 1-(7-(8-Ethyl-7-fluoro-3-hydroxynaphthalen-1-yl)-8-fluoro-2-(((2R,7aS)-2-fluorotetrahydro-1H-pyrrolizin-7a(5H)-yl)methoxy)pyrido[4,3-d]pyrimidin-4-yl)azepan-4-one] showed an IC50 of 74 nM.
`CCc1c(F)ccc2cc(O)cc(-c3ncc4c(N5CCCCC(=O)C5)nc(OC[C@@]56CCCN5C[C@H](F)C6)nc4c3F)c12` [Example 127, 1-(7-(8-Ethyl-7-fluoro-3-hydroxynaphthalen-1-yl)-8-fluoro-2-(((2R,7aS)-2-fluorotetrahydro-1H-pyrrolizin-7a(5H)-yl)methoxy)pyrido[4,3-d]pyrimidin-4-yl)azepan-3-one] was tested, and the IC50 was 8 nM.
For `CCc1c(F)ccc2cc(O)cc(-c3ncc4c(N5CCC[C@@H](CO)C5)nc(OC[C@@]56CCCN5C[C@H](F)C6)nc4c3F)c12` [Example 128, 5-Ethyl-6-fluoro-4-(8-fluoro-2-(((2R,7aS)-2-fluorotetrahydro-1H-pyrrolizin-7a(5H)-yl)methoxy)-4-((R)-3-(hydroxymethyl)piperidin-1-yl)pyrido[4,3-d]pyrimidin-7-yl)naphthalen-2-ol], the IC50 was 293 nM.
`CCc1c(F)ccc2cc(O)cc(-c3ncc4c(N5CCC=CC(=O)C5)nc(OC[C@@]56CCCN5C[C@H](F)C6)nc4c3F)c12` [Example 134, 1-(7-(8-Ethyl-7-fluoro-3-hydroxynaphthalen-1-yl)-8-fluoro-2-(((2R,7aS)-2-fluorotetrahydro-1H-pyrrolizin-7a(5H)-yl)methoxy)pyrido[4,3-d]pyrimidin-4-yl)-1,2,6,7-tetrahydro-3H-azepin-3-one] was tested, and the IC50 was 259 nM.
Work on `CCc1c(F)ccc2cc(O)cc(-c3ncc4c(N5CCCC(O)(C(F)(F)F)C5)nc(OC[C@@]56CCCN5C[C@H](F)C6)nc4c3F)c12` (stereo partly drawn) [Example 156, 1-(7-(8-Ethyl-7-fluoro-3-hydroxy-naphthalen-1-yl)-8-fluoro-2-(((2R,7aS)-2-fluorotetrahydro-1H-pyrrolizin-7a(5H)-yl)methoxy)pyrido[4,3-d]pyrimidin-4-yl)-3-(trifluoromethyl) piperidin-3-ol] yielded an IC50 of 172 nM.
`CCc1c(F)ccc2cc(O)cc(-c3ncc4c(N5CCCC(O)(C6CC6)C5)nc(OC[C@@]56CCCN5C[C@H](F)C6)nc4c3F)c12` (stereo partly drawn) [Example 157, 3-Cyclopropyl-1-(7-(8-ethyl-7-fluoro-3-hydroxy-naphthalen-1-yl)-8-fluoro-2-(((2R,7aS)-2-fluorotetrahydro-1H-pyrrolizin-7a(5H)-yl)methoxy)pyrido[4,3-d]pyrimidin-4-yl)piperidin-3-ol] gave an IC50 of 1240 nM.
Work on `NS(=O)(=O)[C@@H]1CCCN(c2nc(OC[C@@]34CCCN3C[C@H](F)C4)nc3c(F)c(-c4cc(O)cc5ccc(F)c(F)c45)ncc23)C1` [Example 165, (R)-1-(7-(7,8-Difluoro-3-hydroxynaphthalen-1-yl)-8-fluoro-2-(((2R,7aS)-2-fluorotetrahydro-1H-pyrrolizin-7a(5H)-yl)methoxy)pyrido[4,3-d]pyrimidin-4-yl)piperidine-3-sulfonamide] yielded an IC50 of 1160 nM.
Molecule `CCc1c(F)ccc2cc(O)cc(-c3ncc4c(N5CCC[C@@](C)(O)C5)nc(OC[C@@]56CCCN5C[C@H](F)C6)nc4c3Cl)c12` [Example 168, (R)-1-(8-Chloro-7-(8-ethyl-7-fluoro-3-hydroxynaphthalen-1-yl)-2-(((2R,7aS)-2-fluorotetrahydro-1H-pyrrolizin-7a(5H)-yl)methoxy)pyrido[4,3-d]pyrimidin-4-yl)-3-methylpiperidin-3-ol] has an IC50 of 34 nM.
Work on `CCc1c(F)ccc2cc(O)cc(-c3ncc4c(N5CCC[C@@](C)(O)C5)nc(OC[C@@]56CCCN5C[C@H](F)C6)nc4c3C)c12` [Example 169, (R)-1-(7-(8-Ethyl-7-fluoro-3-hydroxynaphthalen-1-yl)-2-(((2R,7aS)-2-fluorotetrahydro-1H-pyrrolizin-7a(5H)-yl)methoxy)-8-methylpyrido[4,3-d]pyrimidin-4-yl)-3-methylpiperidin-3-ol] yielded an IC50 of 40 nM.
`CCc1c(F)ccc2cc(O)cc(-c3cc4nc(OC[C@@]56CCCN5C[C@H](F)C6)nc(N5CCC[C@@](C)(O)C5)c4cn3)c12` [Example 170, (R)-1-(7-(8-Ethyl-7-fluoro-3-hydroxynaphthalen-1-yl)-2-(((2R,7aS)-2-fluorotetrahydro-1H-pyrrolizin-7a(5H)-yl)methoxy)pyrido[4,3-d]pyrimidin-4-yl)-3-methyl-piperidin-3-ol] showed an IC50 of 18 nM.

Same assay, conditions: Homo sapiens, ASPC1, read-out: 2 h p-ERK (AsPC-1 cells), IC50; AsPC-1 cells, 2 h compound treatment
With `CCc1c(F)ccc2cc(O)cc(-c3ncc4c(N5CCC[C@@](C)(O)C5)nc(OC[C@@]56CCCN5C[C@H](F)C6)nc4c3F)c12` [Example 38, (R)-1-(7-(8-ethyl-7-fluoro-3-hydroxynaphthalen-1-yl)-8-fluoro-2-(((2R,7aS)-2-fluorotetrahydro-1H-pyrrolizin-7a(5H)-yl)methoxy)pyrido[4,3-d]pyrimidin-4-yl)-3-methyl-piperidin-3-ol] the IC50 was 5 nM.
`CCc1c(F)ccc2cc(O)cc(-c3ncc4c(N5CCC[C@@](C)(O)C5)nc(OC[C@]56CCCN5C[C@H](F)C6)nc4c3F)c12` [Example 53, (R)-1-(7-(8-ethyl-7-fluoro-3-hydroxynaphthalen-1-yl)-8-fluoro-2-(((2R,7aR)-2-fluorotetrahydro-1H-pyrrolizin-7a(5H)-yl)methoxy)pyrido[4,3-d]pyrimidin-4-yl)-3-methylpiperidin-3-ol] was tested, and the IC50 was 13 nM.
